Laboratory results: US4616023A, “Pharmaceutical compositions of 4-(dibenzo-[a,d]cycloalkenyl)piperazine compounds and methods” (Merck & Co., Inc., priority 1985, dated 1986)

test system: Rat Aorta; experiment: inhibition of calcium induced contraction of vascular smooth muscle (rat aorta segments); assay type: cell-based, male Sprague-Dawley rats; settings: at 10^-7 M, 1.0 mM calcium chloride induced contraction, read-out: Percent Inhibition of Rat Aorta
Procedure: The property may be observed in a test in which segments of vascular smooth muscle obtained from male Sprague-Dawleyrats are suspended in physiological salt solution in a tissue bath instrumented for recording contractions. After the tissue has been equilibrated, washed in calcium-free physiological salt solution and then depolarized, 1.0 mM calcium chloride is re-added to induce contraction. After the contraction has reached a plateau, tissues are washed and a test compound or vehicle is added to determine the effect achieved by the above cyclic protocol on a second contraction. From measuring the initial contraction as well as the second contraction in the presence of the test compound, the extent of inhibition may be calculated. The results of these tests for representative compounds in the compositions of the present invention are seen in the following table.

How did the inhibition at 0.1 µM turn out when `COc1ccc2c(c1)C(N1CCN(C)CC1)c1ccccc1C=C2` (centres unmarked) [1-(3-Methoxy-5H-dibenzo[a,d]cyclohepten-5-yl)-4-methylpiperazine] was run?
The inhibition at 0.1 µM was 65%.

`CSc1ccc2c(c1)C(N1CCN(C)CC1)c1ccccc1C=C2` (centres unmarked) [1-Methyl-4-(3-methylthio-5H-dibenzo[a,d]cyclohepten-5-yl)piperazine] was tested. Which inhibition at 0.1 µM did it give?
Its inhibition at 0.1 µM is 76%.

`Brc1ccc2c(c1)C(N1CCN(CC=Cc3ccccc3)CC1)c1ccccc1C=C2` (centres unmarked) [1-(3-bromo-5H-dibenzo[a,d]cyclohepten-5-yl)-4-cinnamylpiperazine] was tested. Which inhibition at 0.1 µM did it give?
Its inhibition at 0.1 µM is 41%.

For `CN1CCN(C2c3ccccc3C=Cc3ccccc32)CC1` [1-(5H-dibenzo[a,d]cyclohepten-5-yl)-4-methylpiperazine], which inhibition at 0.1 µM is on record?
The inhibition at 0.1 µM was 59%.

Which inhibition at 0.1 µM does the source give for `CN1CCN(C2c3ccccc3CSc3ccccc32)CC1` (centres unmarked) [1-(6,11-Dihydrodibenzo[b,e]thiepin-11-yl)-4-methylpiperazine] here?
The inhibition at 0.1 µM was 30%.

`C1=Cc2ccccc2C(N2CCNCC2)c2ccccc21` [1-(5H-Dibenzo[a,d]cyclohepten-5-yl)piperazine] was tested. Which inhibition at 0.1 µM did it give?
Its inhibition at 0.1 µM is 34%.

`COc1ccc2c(c1)C(N1CCN(C)CC1)c1ccccc1CC2` (centres unmarked) [1-(10,11-Dihydro-3-methoxy-5H-dibenzo[a,d]cyclohepten-5-yl)-4-methylpiperazine] was tested. Which inhibition at 0.1 µM did it give?
The inhibition at 0.1 µM was 36%.

For `CCOC(=O)N1CCN(C2c3ccccc3C=Cc3ccccc32)CC1` [Ethyl 4-(5H-Dibenzo[a,d]cyclohepten-5-yl)-1-piperazinecarboxylate], which inhibition at 0.1 µM is on record?
Its inhibition at 0.1 µM is 37%.

How did the inhibition at 0.1 µM turn out when `CN1CCN(C2c3ccccc3C=Cc3ccc(Cl)cc32)CC1` (centres unmarked) [1-(3-Chloro-5H-dibenzo[a,d]cyclohepten-5-yl)-4-methylpiperazine] was run?
Its inhibition at 0.1 µM is 90%.

same assay, conditions: at 10^-8 M, 1.0 mM calcium chloride induced contraction, read-out: Percent Inhibition of Rat Aorta

`CN1CCN(C2c3ccccc3C=Cc3ccc(Br)cc32)CC1` (centres unmarked) [1-(3-Bromo-5H-dibenzo[a,d]cyclohepten-5-yl)-4-methylpiperazine] was tested. Which inhibition at 0.01 µM did it give?
The inhibition at 0.01 µM was 48%.

Which inhibition at 0.01 µM does the source give for `C(=Cc1ccccc1)CN1CCN(C2c3ccccc3C=Cc3ccccc32)CC1` [1-cinnamyl-4-(5H-dibenzo[a,d]cyclohepten-5-yl)piperazine] here?
The inhibition at 0.01 µM was 89%.
